Measurements taken from publication PMC3716995, “A phase I study of ridaforolimus in adult Chinese patients with advanced solid tumors” (Journal of Hematology & Oncology, 2013).
“And” between values parts separate entries of the source, which are not always exact repeats. Identical values can stand only once. Like-named read-outs stand apart in the source and are kept apart here. Marks after values point to notes of the source that are not given here.

Legend:
[1] = tested on: treatment-refractory advanced or relapsed solid tumors; assay: Tumor response (RECIST 1.1) in Chinese patients; assay type: in vivo
Procedure: (§1) The patients continued to receive 40 mg of ridaforolimus for five consecutive days followed by two day's off until disease progression or intolerability. Averse events were monitored every four weeks and AEs were graded according to the Common Terminology Criteria for Adverse Events version 4.0. We also monitored patients’ vital signs and conducted laboratory and physical examinations every four weeks. Radiographic studies for disease assessment were conducted at baseline and again after every two treatment cycles (thus, every eight weeks). Tumor responses were assessed according to the Response Evaluation Criteria for Solid Tumors 1.1 guidelines. We conducted a full safety assessment in all patients four weeks after the administration of the last treatment dose.

[2] = parameters: method as in PMID 18202410, PMID 19228743, PMID 22143378; details: Caucasians and Japanese patients, cited from earlier work
[3] = parameters: method as in PMID 22143378; details: Japanese patients, cited from earlier work
[4] = parameters: method as in internal PK data; details: Caucasian patients, ref internal PK data, cited from earlier work
[5] = Whole blood pharmacokinetics of oral ridaforolimus 40 mg in Chinese patients (HPLC-MS/MS, WinNonlin); assay type: in vivo; details: for AUC(0-t): read-out: AUC0-24; for concentration at 24 h: read-out: C24hr
Procedure: (§2) The eligible patients were given the following treatment regimen: a single oral dose of 40 mg of ridaforolimus on Day 1; and then, the treatment started from Day 8 with an oral dose of 40 mg of ridaforolimus for five consecutive days (on Day 8 through Day 12) followed by two day's off (Day 13 and 14). The treatment repeated every 7 days. Four treatment weeks was considered one treatment cycle. Sample blood for PK analysis were collected at the following times: on Day 1 prior to drug administration and for 168 h post-dose (at 1, 2, 3, 4, 6, 8, 24, 72, 96, and 168 h post-treatment); on Day 8 and Day 15 prior to drug administration; on Day 19 prior to drug administration and for 24 h post-dose (at 1, 2, 3, 4, 6, 8 and 24 h post-treatment). We monitored patients’ vital signs and conducted laboratory and physical examinations on trial Day 1, 8 and 19.
Ridaforolimus concentration in both whole blood and plasma was analyzed using high-performance liquid chromatography with tandem mass spectrometric detection set at a lower limit of quantification of 0.2 ng/mL (Wuxi AppTec, Shanghai, China). Pharmacokinetic analyses were performed with WinNonlin, version 5.2.1 (Pharsight Corp., St. Louis, MO, USA). AUC0-∞, AUC0-24hr, C24hr, and Cmax were determined for each patient on Day 1 and on Day 19, if applicable, and the geometric means as well as the 95% CI were calculated. The accumulation of ridaforolimus was assessed for Cmax and for AUC0-24hr (geometric mean ratio Day 19 / Day 1 and 90% CI).

[6] = tested on: advanced sarcoma; parameters: method as in earlier work; details: maintenance therapy, cited from earlier work
[7] = Safety and tolerability (adverse events, CTCAE v4.0) of oral ridaforolimus 40 mg in Chinese patients; assay type: in vivo
Procedure: as §2, §1

[8] = single dose, geometric mean (95% CI)
[9] = Day 1, single oral dose 40 mg, whole blood, median
[10] = human, whole blood, po, 40 mg, Day 1, single oral dose 40 mg, whole blood, geometric mean
[11] = Grade 3 non-serious adverse event
[12] = Grade 4 non-serious adverse event
[13] = N = 15, not considered drug-related by the investigator
[14] = non-serious adverse event, all grades, N = 15

CO[C@H]1C[C@@H]2CC[C@@H](C)[C@@](O)(O2)C(=O)C(=O)N2CCCC[C@H]2C(=O)O[C@H]([C@H](C)C[C@@H]2CC[C@@H](OP(C)(C)=O)[C@H](OC)C2)CC(=O)[C@H](C)/C=C(\C)[C@@H](O)[C@@H](OC)C(=O)[C@H](C)C[C@H](C)/C=C/C=C/C=C/1C [ridaforolimus, Ridaforolimus]
Patients who discontinued treatment because of progressive disease ([1]; N = 15): Eight | Partial or complete responses ([1]; RECIST 1.1): absence of partial or complete responses | Tolerability ([2]; oral 40mg per day for five consecutive days followed by two day's off): well tolerated | Most important dose limiting toxicity ([2]; oral ridaforolimus): stomatitis | AUC0-24 ([3]; multiple dose): 2,120 (1,320, 3,410) ng.hr/ml | Cmax ([3]; multiple dose): 188 (116, 306) ng/ml | Tmax ([3]; multiple dose): 4.04 (4.00, 8.15) hr | AUC0-24 [3, 8]: 1,470 (914, 2,360) ng.hr/ml | Cmax [3, 8]: 187 (115, 304) ng/ml | t1/2 ([3]; single dose, harmonic mean (jack-knife SD)): 55.8 (50.95, 60.65)^c hr | Tmax ([3]; single dose, median (min, max)): 4.00 (4.00, 8.00) hr | Accumulation ratio AUC0-24 ([3]; geometric mean ratio (90% CI)): 1.44 (1.05, 1.99) | Accumulation ratio Cmax ([3]; geometric mean ratio (90% CI)): 1.01 (0.674, 1.50) | AUC0-24 ([4]; multiple dose): 1882(1630, 2180) ng.hr/ml | Cmax ([4]; multiple dose): 160(136, 188) ng/ml | AUC0-24 [4, 8]: 992(801, 1230) ng.hr/ml | Cmax [4, 8]: 112(84.6, 148) ng/ml | t1/2 ([4]; single dose, harmonic mean (pseudo SD)): 42.0(17.7)^d hr | Tmax ([4]; single dose, median (min, max)): 2.79(1.42, 9.78) hr | Accumulation ratio AUC0-24 ([4]; geometric mean ratio (90% CI)): 1.90(1.63, 2.21) | Accumulation ratio Cmax ([4]; geometric mean ratio (90% CI)): 1.43(1.22, 1.68) | Linearity of blood PKs ([5]; AUC0-24hr at steady state lower than AUC0-∞ after single dose): non-linear | Apparent t1/2 (elimination half-life) ([5]; Day 1, single oral dose 40 mg, whole blood, harmonic mean): 52.9 h | Tlag (absorption lag time) [5, 9]: 2 h and 2.00 h | Tmax [5, 9]: 4.03 h | Absorption after oral administration ([5]; human, in vivo, po): slowly absorbed | AUC(0-t) [5, 10]: 1850 ng·h/mL | concentration at 24 h [5, 10]: 34.8 ng/mL | Cmax ([5]; human, whole blood, po, 40 mg, Day 1, single oral dose 40 mg, whole blood, geometric mean, read-out: Cmax): 210 ng/mL | half-life ([5]; human, whole blood, po, 40 mg, Day 1, single oral dose 40 mg, whole blood, harmonic mean, read-out: Apparent t1/2 (elimination half-life) (converted)): 53 h | Tmax ([5]; human, whole blood, po, 40 mg, Day 1, single oral dose 40 mg, whole blood, median, read-out: Tmax): 4 h | Cmax ([5]; human, whole blood, po, 40 mg, Day 1, single oral dose 40 mg, read-out: Cmax, median value): 192 ng/mL | AUC(0-t) ([5]; human, whole blood, po, 40 mg, Day 19, multiple once daily oral 40 mg (steady state), whole blood, geometric mean): 2010 ng·h/mL | concentration at 24 h ([5]; human, whole blood, po, 40 mg, Day 19, multiple once daily oral 40 mg, whole blood, geometric mean): 49.7 ng/mL | Cmax ([5]; human, whole blood, po, 40 mg, Day 19, multiple once daily oral 40 mg, whole blood, geometric mean, read-out: Cmax): 167 ng/mL | Tmax ([5]; human, whole blood, po, 40 mg, Day 19, multiple once daily oral 40 mg, whole blood, median, read-out: Tmax): 4 h | Cmax ([5]; human, whole blood, po, 40 mg, Day 19, multiple once daily oral 40 mg, read-out: Cmax, median value): 203 ng/mL | AUC(0-inf) ([5]; human, Day 1, single oral dose 40 mg, whole blood, geometric mean): 3650 ng·h/mL | Median PFS ([6]; vs 14.6 weeks for placebo, P = 0.0001): 17.7 weeks | Median overall survival at data cut-off (386 deaths) ([6]; vs 83.4 weeks for placebo, P = 0.23): 93.3 weeks | Anaemia Grade 3, number of patients [7, 11]: 2/15 | Anaemia Grade 3, percentage of patients [7, 11]: 13.3% | Constipation Grade 3, number of patients [7, 11]: 1/15 | Constipation Grade 3, percentage of patients [7, 11]: 6.7% | Fatigue Grade 3, number of patients [7, 11]: 2/15 | Fatigue Grade 3, percentage of patients [7, 11]: 13.3% | Gamma-glutamyltransferase increase Grade 3, number of patients [7, 11]: 1/15 | Gamma-glutamyltransferase increase Grade 3, percentage of patients [7, 11]: 6.7% | Platelet count decrease Grade 3, number of patients [7, 11]: 1/15 | Platelet count decrease Grade 3, percentage of patients [7, 11]: 6.7% | Proteinuria Grade 3, number of patients [7, 11]: 1/15 | Proteinuria Grade 3, percentage of patients [7, 11]: 6.7% | Stomatitis Grade 3, number of patients [7, 11]: 2/15 | Stomatitis Grade 3, percentage of patients [7, 11]: 13.3% | Anaemia Grade 4, number of patients [7, 12]: 1/15 | Anaemia Grade 4, percentage of patients [7, 12]: 6.7% | Platelet count decrease Grade 4, number of patients [7, 12]: 1/15 | Platelet count decrease Grade 4, percentage of patients [7, 12]: 6.7% | Patients who discontinued as a result of drug-related fatigue ([7]; N = 15): one | Patients who discontinued as a result of drug-related interstitial lung disease ([7]; N = 15): three | Patients who discontinued as a result of drug-related stomatitis ([7]; N = 15): one | Patients who discontinued due to drug-related AEs ([7]; N = 15): five | Patients who discontinued treatment as a result of AEs ([7]; N = 15): six | Patients who developed serious AEs, number [7, 13]: Four | Patients who developed serious AEs, percentage [7, 13]: 26.7% | Patients who developed Grade 2 interstitial pneumonitis ([7]; all recovered after interruption and glucocorticoids): Three | Non-serious AEs considered Grade 3 ([7]; fifteen patients): 11 | Non-serious AEs considered Grade 4 ([7]; fifteen patients): 2 | Non-serious AEs deemed by the investigator as drug related ([7]; fifteen patients): 111 | Total number of non-serious AEs reported ([7]; fifteen patients): 135 | Grade 3/4 drug-related AEs ([7]; human, in vivo): anemia, stomatitis, fatigue, thrombocytopenia, constipation, gamma glutamyltransferase increase, and proteinuria | Most common drug-related adverse events (occurred in ≥40% of patients) ([7]; human, in vivo): stomatitis, proteinuria, leukopenia, hyperglycemia, and pyrexia | ALT increase, number of patients [7, 14]: 3 | ALT increase, percentage of patients [7, 14]: 20% | Anemia, number of patients [7, 14]: 5 | Anemia, percentage of patients [7, 14]: 33.3% | Blood alkaline phosphatase increased, number of patients [7, 14]: 4 | Blood alkaline phosphatase increased, percentage of patients [7, 14]: 26.7% | Blood cholesterol increased, number of patients [7, 14]: 5 | Blood cholesterol increased, percentage of patients [7, 14]: 33.3% | Fatigue, number of patients [7, 14]: 4 | Fatigue, percentage of patients [7, 14]: 26.7% | Gamma-glutamyltransferase increased, number of patients [7, 14]: 6 | Gamma-glutamyltransferase increased, percentage of patients [7, 14]: 40% | Hyperglycaemia, number of patients [7, 14]: 7 | Hyperglycaemia, percentage of patients [7, 14]: 46.7% | Hypoalbuminaemia, number of patients [7, 14]: 5 | Hypoalbuminaemia, percentage of patients [7, 14]: 33.3% | Interstitial lung disease, number of patients [7, 14]: 3 | Interstitial lung disease, percentage of patients [7, 14]: 20% | Platelet count decrease, number of patients [7, 14]: 5 | Platelet count decrease, percentage of patients [7, 14]: 33.3% | Proteinuria, number of patients [7, 14]: 11 | Proteinuria, percentage of patients [7, 14]: 73.3% | Pyrexia, number of patients [7, 14]: 6 | Pyrexia, percentage of patients [7, 14]: 40% | Stomatitis, number of patients [7, 14]: 12 | Stomatitis, percentage of patients [7, 14]: 80% | White blood cell count decrease, number of patients [7, 14]: 8 | White blood cell count decrease, percentage of patients [7, 14]: 53.3% | Tolerability ([7]; once a day oral dose of 40 mg, Chinese patients): generally well tolerated | Changes from baseline over time in serum cholesterol, serum glucose, serum triglycerides ([7]; summary statistics, an elevation from baseline was observed): no clinically significant elevations
